Assay results published in patent publication US20210277057A1, “AD[…]-OPIATE RECEPTOR PEPTIDE COMPOUNDS” (Cytogel Pharma, LLC, priority 2009, published 2021).
Structures can show the parent of a compound that is named as a salt.

Key:
rat = test: standard rat tail flick assay; format: in vivo; settings: suspension in 20% PEG
Protocol: The assay was the standard rat tail flick assay. Test agents were administered intravenously as suspensions in 20% PEG.

delta receptors = test: binding to delta receptors relative to mu opiate receptor; settings: delta versus mu opiate receptor
kappa receptors = test: binding to kappa receptors relative to mu opiate receptor; settings: kappa versus mu opiate receptor

Compound: NC(Cc1ccc(O)cc1)C(=O)NC1CCCCNC(=O)C(Cc2ccccc2)NC(=O)C(Cc2c[nH]c3ccccc23)NC1=O [CYT-1010 Acetate, H-Tyr-c-[D-Lys-Trp-Phe]]
- Activity % MPE Ave (rat; IV dose 2 mg/kg, listed as Acetate, 2 mg/kg): 50.0%
- Activity % MPE Ave (rat; IV dose 4 mg/kg, listed as Acetate, 4 mg/kg): 83.3%

Compound: NC(Cc1ccc(O)cc1)C(=O)NC1CCCCNC(=O)C(Cc2ccccc2)NC(=O)C(Cc2c[nH]c3ccccc23)NC1=O [CYT-1010 Aspartate, H-Tyr-c-[D-Lys-Trp-Phe]]
- Activity % MPE Ave (rat; IV dose 2 mg/kg, listed as Aspartate, 2 mg/kg): 7.4%

Compound: NC(Cc1ccc(O)cc1)C(=O)NC1CCCCNC(=O)C(Cc2ccccc2)NC(=O)C(Cc2c[nH]c3ccccc23)NC1=O [CYT-1010 Free Base, H-Tyr-c-[D-Lys-Trp-Phe]]
- Activity % MPE Ave (rat; IV dose 2 mg/kg, listed as Free Base, 2 mg/kg): 77.7%
- Activity % MPE Ave (rat; IV dose 4 mg/kg, listed as Free Base, 4 mg/kg): 100.0%

Compound: NC(Cc1ccc(O)cc1)C(=O)NC1CCCCNC(=O)C(Cc2ccccc2)NC(=O)C(Cc2c[nH]c3ccccc23)NC1=O [CYT-1010 HCL, H-Tyr-c-[D-Lys-Trp-Phe]]
- Activity % MPE Ave (rat; IV dose 4 mg/kg, listed as HCL, 4 mg/kg): 0.0%

Compound: NC(Cc1ccc(O)cc1)C(=O)NC1CCCCNC(=O)C(Cc2ccccc2)NC(=O)C(Cc2c[nH]c3ccccc23)NC1=O [CYT-1010 Lactate, H-Tyr-c-[D-Lys-Trp-Phe]]
- Activity % MPE Ave (rat; IV dose 2 mg/kg, listed as Lactate, 2 mg/kg): 1.4%

Compound: NC(Cc1ccc(O)cc1)C(=O)NC1CCCCNC(=O)C(Cc2ccccc2)NC(=O)C(Cc2c[nH]c3ccccc23)NC1=O [CYT-1010 TFA, H-Tyr-c-[D-Lys-Trp-Phe]]
- Activity % MPE Ave (rat; IV dose 4 mg/kg, listed as TFA, 4 mg/kg): 25.4%
- Activity % MPE Ave (rat; IV dose 8 mg/kg): 71.2%

Compound: H-Tyr-Pro-Trp-Phe-NH2 [SEQ ID NO:1]
- weaker binding to delta receptors (selectivity for mu opiate receptor) (delta receptors): over 4000 fold
- weaker binding to kappa receptors (selectivity for mu opiate receptor) (kappa receptors): over 15,000 fold
